# Where two headings read alike, the source gives them in different places.
# Legend:
# [1] = test system: MPP/DG synaptic connection; experiment: Field electrophysiological recordings on hippocampal slices (MPP/DG), sham or x-irradiated animals; assay type: in vivo, mice
# Description: Electrophysiology. Brains were collected from animals after deep anesthesia with halothane and decapitation, and transverse hippocampal slices (400 μm) were prepared using a vibratome. […] Slices were allowed to equilibrate for 2 h before positioning the electrodes and beginning stimulation.
# To record from the DG, the medial perforant path (MPP) was stimulated using a World Precision Instruments (Sarasota, Fla.) stimulation isolation unit and a bipolar tungsten electrode. Evoked potentials were recorded in the molecular layer above the upper blade of the DG using a glass capillary microelectrode filled with artificial CSF (tip resistance of 1-3 MΩ). […] Input-output curves were obtained after 10 min of stable recordings. […] After 15 min of stable baseline response to test stimulation (once every 20 s), the ability to elicit LTP was assessed. […] Responses were recorded every 20 for 60 min after LTP induction.
# [2] = test system: C57BL/6Ntac mice; experiment: Open Field paradigm, chronic corticosterone model; assay type: in vivo
# Text: The procedure described previously was used (Dulawa et al., 2004). Motor activity was quantified in four Plexiglas open field boxes 43 times 43 cm2 (MED Associates, Georgia, Vt.). Two sets of 16 pulse-modulated infrared photobeams were placed on opposite walls 2.5-cm apart to record x-y ambulatory movements. Activity chambers were computer interfaced for data sampling at 100-ms resolution. The computer defined grid lines that divided each Open Field into center and surround regions, with each of four lines being 11 cm from each wall. Dependent measures in the center were the total time and the number of entries over a 30-min period of test. The whole session was also divided in […] to analyze the time spent in the center every 5 min. The overall motor activity was quantified as the total distance traveled (cm) or distance traveled in the center divided by total distance traveled.
# Mice were anesthetized with ketamine and xylazine (100 mg/ml ketamine; 20 mg/ml xylazine), placed in a stereotaxic frame and exposed to cranial irradiation using a Siemens Stabilopan X-ray system operated at 300 kVp and 20 mA. Animals were protected with a lead shield that covered the entire body, but left unshielded a 3.22×11-mm treatment field above the hippocampus (interaural 3.00 to 0.00) exposed to X-Ray. Dosimetry was done using a Capintec Model PR06G electrometer ionization chamber and Kodak Readypack Radiographic XV films. The corrected dose rate was approximately 1.8 Gy per min at a source to skin distance of 30 cm. The procedure lasted 2 min and 47 sec, delivering a total of 5 Gy. Three 5 Gy doses were delivered on days 1, 4 and 8.
# [3] = test system: doublecortin positive cells; experiment: Doublecortin (DCX) labeling for maturation index study, corticosterone model; assay type: in vivo, mice
# Description: The secondary antibody was biotinylated donkey anti-goat (1:500) (Jackson ImmunoResearch, West Grove, Pa.) in PBS for 2 hr at room temperature. Sections were developed using avidin-biotin complex (Vector, USA) and DAB kit.
# [4] = test system: Creb-1 gene
# Description: (§1) Tissue preparation: Animals were sacrificed by cervical dislocation. Selected brain regions were dissected and placed in tubes containing RNAlater (Ambion), incubated at 4 degrees C. overnight and stored at −80 degrees C. until processing.
# (§2) Brain regions (10-20 mg) were homogenized for 20 sec at medium speed in 1.25 ml lysis/denaturation buffer (Ambion) using an Autogizer™ (Tomtec). Total RNA was isolated from 100-300 ul aliquots of the homogenate using the RNAqueous™ 96 automated kit (Ambion) according to the manufacturer's protocol. A second DNase I digestion was incorporated after elution of the RNA from the Ambion filter plate to remove residual genomic DNA. Digestion was performed for 1 hr at room temperature using DNase I™ (Invitrogen) and the buffer supplied with the enzyme. After inactivation of the DNase with EDTA and heat, the RNA was desalted with a Multiscreen™ filter plate (Millipore) and stored at −80° C. Conversion of total RNA into first strand cDNA was accomplished with Superscript II™ enzyme (Invitrogen) followed by desalting over a Multiscreen plate. Approximately 1 ug of total RNA was used for each cDNA reaction. The yield of cDNA was determined using Quant-iT Oligreen™ reagent (Invitrogen). Prior to the Oligreen assay, total RNA carried over from the cDNA reaction was hydrolyzed with NaOH and heat, followed by neutralization with Tris buffer. This treatment eliminates any contribution of the RNA to the Oligreen signal. The unknown cDNA samples were compared to a standard curve derived using a 18mer oligonucleotide. Replica cDNA plates containing 3 ng of cDNA per well were prepared using an Evolution P3™ workstation (PerkinElmer). Each animal in a given experiment was represented by one well on each plate and each plate always contained the control and treatment groups.
# (§3) Quantitative PCR (qPCR) was carried out in 25 ul reactions using Full Velocity™ enzyme (Stratagene). Plates were run on either a Stratagene MX3000P™ or an Applied Biosystems 7900 HT instrument. The cycling parameters were set based on recommendations from the enzyme manufacturer. One gene expression profile was analyzed per PCR plate and duplicate plates were run for each gene. Two housekeeping genes, cyclophilin and GAPDH, were included in the gene list and were used to normalize the expression results obtained from the other genes of interest (see data analysis section). The sequences of the primers and probes for each gene are listed in supplemental table 1. Duplicate cycle thresholds (Ct values) were obtained for each gene/region and averaged. The values for cyclophilin and GAPDH were combined and used to normalize the expression values from the other genes by employing the delta Ct method. After converting delta Ct values to percentage, the mean and SEM of each animal group (controls and experimental) was calculated.
# (§4) Tissue preparation, RNA extraction, DNA preparation and qPCR analysis were described in the materials and methods section. Data analysis and statistics Results from data analyses were expressed as mean±SEM. Data were analyzed using StatView 5.0 software (SAS Institute, Cary, N.C.).
# [5] = test system: mineralocorticoid receptor
# Description: as §1, §2, §3, §4
smiles,measurement,setting,value
CNCCC(Oc1ccc(C(F)(F)F)cc1)c1ccccc1 (centres unmarked) [fluoxetine],input-output functions in the MPP/DG,[1]; chronic fluoxetine,significantly increased
same,paired-pulse depression (50 ms interstimulus interval),"[1]; chronic fluoxetine, one-third of maximal response and 60 μA",suppressed
same,ACSF-LTP,"[1]; chronic fluoxetine, sham animals",enhanced
same,LTP,"[1]; chronic fluoxetine, x-irradiated animals",completely blocked
same,input-output functions in the MPP/DG,[1]; subchronic fluoxetine,significantly increased
same,ACSF-LTP,"[1]; subchronic fluoxetine, both sham and x-irradiated animals",suppression
same,corticosterone-induced anxiety phenotype in the Open Field (time and entries in the center),"[2]; 3-week antidepressant treatment in corticosterone-treated mice, imipramine 40, fluoxetine 18 mg/kg/day",reversed
same,ambulatory distance (Open Field),"[2]; chronic corticosterone, with or without chronic fluoxetine",abolished
same,corticosterone-induced decrease of Open Field center parameters,"[2]; chronic fluoxetine, regardless of X-irradiation",reversed
same,number of doublecortin positive cells with tertiary dendrites,"[3]; chronic fluoxetine, control animals",increased
same,effect of fluoxetine on the number of doublecortin positive cells and their dendritic morphology,"[3]; in the presence of corticosterone, compared with controls",even more pronounced
same,Creb-1 gene expression,[4]; amygdala,unchanged
same,Creb-1 gene expression,[4]; hippocampus,unchanged
same,Creb-1 gene expression,[4]; hypothalamus,unchanged
same,mineralocorticoid receptor expression,[5]; amygdala,unchanged
same,mineralocorticoid receptor expression,[5]; hippocampus,unchanged
same,mineralocorticoid receptor expression,[5]; hypothalamus,unchanged

# Source: US20110296540A1, “ASSAY FOR SCREENING ANTIDEPRESSANTS” (priority 2008, published 2011)
